# Laboratory results as given in patent US8008433B2, “Methods for preventing or treating bone disorders” (Metabolic Pharmaceutical Limited, priority 2004, dated 2011).
# Where a SMILES comes first, the peptide text is derived from it. Bridges are numbered along the chain shown (N, C = ends).
# What was measured:
# [1] = test system: aged rat model for post-menopausal osteoporosis; assay: Vertebral compression of L5 (trabecular bone); format: in vivo, Sprague-Dawley rats (Rattus Norvegicus); settings: slow release pellet 0.01 mg/day, 12 weeks
# Description: Ninety-six aged Sprague-Dawley rats were randomly assigned to one of eight groups. The first two groups were sham operated. Group 1 was kept as a Sham control and Group 2 was treated with 2.5 mg/kg/day of recombinant human GH (rhGH) (BresaGen). The remaining six groups arrived from Harlan, ovariectomized (OVX). This surgery was performed approximately 8 days before the commencement of treatment. Group 3 was left as a control for the OVX model. Group 4 was given a treatment of 2.5 mg/kg/day of rhGH. Group 5 was treated with a low dose of AOD peptide (LAOD) 0.75 mg/kg/day and Group 6 was treated with a high dose of AOD peptide (HAOD) 2.0 mg/kg/day. […]
# Statistical analysis was performed using statistical software, SPSS (version 11.0). Comparisons involving two groups were analyzed by independent student's t-test. Multiple comparisons were analyzed by one-way ANOVA analysis using the pairwise comparison Protected Fisher's Least Significant Difference (LSD) post hoc test. […]
# Digital images were taken and image analysis software (ImageJ 1.28u, NIH) was used to determine the height and cross-sectional area of the vertebral body. […] While preloading the samples, the distance between the platens was measured using digital calipers. The gauge length was then determined by subtracting the height of the jig with the distance between the platens. […]
# [2] = test system: C57B1/6J (Ob/Ob) mouse; settings: from AU 693478; cited from earlier work
compound,measurement,setting,value
17B-estradiol [Estrogen],"strength and stiffness (vertebral compression L5), decrease caused by OVX",[1],did not prevent a decrease
same,stress and elastic modulus values (vertebral compression L5) compared to OVX,[1],higher
"CC[C@H](C)[C@H](NC(=O)[C@H](CCCNC(=N)N)NC(=O)[C@H](CC(C)C)NC(=O)[C@@H](N)Cc1ccc(O)cc1)C(=O)N[C@H](C(=O)N[C@@H](CCC(N)=O)C(=O)N[C@H]1CSSC[C@@H](C(=O)NCC(=O)N[C@@H](Cc2ccccc2)C(=O)O)NC(=O)[C@H](CO)NC(=O)CNC(=O)[C@H](CCC(=O)O)NC(=O)[C@H](C(C)C)NC(=O)[C@H](CO)NC(=O)[C@H](CCCNC(=N)N)NC1=O)C(C)C [AOD, Tyr Leu Arg Ile Val Gln Cys Arg Ser Val Glu Gly Ser Cys Gly Phe] (H-YLRIVQCRSVEGSCGF-OH; disulfide 7-14; N-terminus and C-terminus assumed)",solubility,,> 1000 µg/mL
"hGH 177-191: synthetic peptide corresponding to amino acid residues 177-191 of the human growth hormone sequence (LRIVQCRSVEGSCGF; UniProt P01241 203-217, looked up, fragment)",adipose tissue mass,[2],reduce
same,body weight gain,[2],reduce
